Measurements as given in patent publication US8916612B2, “Agmatine containing dietary supplements, nutraceuticals, and foods” (priority 2008, dated 2014).
Where “and” joins values, the source holds several entries; their conditions need not be identical. Identical values can stand only once.

Columns and labels:
[1] = tested on: participants with lumbar disc-associated radiculopathy; assay: Randomized, double-blind, placebo-controlled trial in lumbar disc-associated radiculopathy; assay type: in vivo, human; conditions: 2.670 g/day for 14 days
From the text: This recommendation is supported by recent clinical trials (Keynan O, Mirovsky Y, Dekel S, Gilad V H, Gilad G M. Safety and efficacy of dietary agmatine sulfate in lumbar disc-associated radiculopathy. An open label, dose-escalating study followed by a randomized, double-blind, placebo-controlled trial. Pain Med, (2010) in press). […] In the randomized, double-blind, placebo-controlled (RCT) trial, eligible participants received either placebo or agmatine sulfate (2.670 g/day for 14 days) in a double-blind fashion. Analysis was performed on 30 participants in the placebo and 31 in the agmatine sulfate arm. […] Secondary outcomes included assessments of safety and tolerability. […] While the severity of pain symptoms and general health status improved with time in both placebo and agmatine sulfate-treated groups, the improvements were more pronounced in the agmatine sulfate-treated group. […] Importantly, none of the participants reported worsening in their general health status.
Results, mean (±SEM, vertical lines) values are expressed as percent of baseline values. Asterisks indicate significant differences between the placebo- and agmatine sulfate-treated groups (p 0.033).

male Wistar rats = assay: Sub-chronic intake of high dose agmatine sulfate in the drinking water (Example II); assay type: in vivo, rat; conditions: for Blood Pressure (mmHg), systolic, mean / Daily Drinking (ml), mean / Body Weight (g), mean: group mean; for Body Weight / Blood Pressure (mmHg), systolic / Daily Drinking: individual animal, sulfate
Method: The experiment was performed at Assaf Harofeh Medical Center, Israel, according to the Institutional Animal Care and Use Committee approved protocol. Three-month-old male Wistar rats (Harlan, Israel) weighing 250±20 g were caged individually under standard vivarium conditions of temperature (22±2° C.), humidity (55-75%) and light (12 h light-dark cycle) with a free supply of food and water. Experimental animals (n=10) drank sterile water containing agmatine sulfate 5.3 g/l, while controls (n=10) drank regular sterile drinking-water for 95 days. Drinking-water containing agmatine sulfate have bitter taste.
Animal body weight and systolic blood pressure (SBP) as measured by tail-cuff plethysmography (IITC Life Science, Woodland Hills, Calif.) were measured at the starting day of the experiment (day 1) and at various intervals thereafter. General behavior, fur appearance and feces appearance were also assessed. Water consumption was measured daily. After 95 days, 5 animals of each group were deeply anesthetized ([…] sodium pentobarbital, intraperitoneal) and the stomach, kidney, heart and liver removed for gross inspection. The stomach was inspected for appearance of ulcers. The rest of the animals, in both the control and experimental groups, were all maintained on regular diet (without agmatine sulfate in the drinking-water) for additional 20 days and then killed (on the 115th day). Results were evaluated by analysis of variance (ANOVA) procedure. Differences were analyzed by 2-tailed t-test and values of p≦0.05 were considered statistical significant. For data normalization, differences were expressed as percent change of day 1 values.

[2] = tested on: facial nerve crush in male Wistar rats; assay: Vibrissae functional recovery after facial nerve crush following prior agmatine sulfate intake (Example III); assay type: in vivo, rat
Method: The experiment was performed at Assaf Harofeh Medical Center, Israel, with 4-month-old male Wistar rats (Harlan, Israel) kept under standard conditions in the Institute's vivarium according to the Institutional Animal Care and Use Committee approved protocols (see Example II above). […] rats were divided into 2 groups of 14 animals each, one group drank sterile water containing agmatine sulfate 5.3 g/l, while the other drank regular sterile drinking-water for a period of 21 days. On day 21 both groups were switched to drink regular tap water. In 7 rats from each group the facial nerve was crushed unilaterally while the other 7 were left unoperated. Surgery was performed under halothane anesthesia (1.5% in 100% 02) and the facial nerve was crushed unilaterally at the stylomastoid foramen for 20 seconds with a jeweler's forceps under the operating microscope.
Transection of the facial nerve, which innervates the upper and lower lips results in paralysis of the vibrissae (whiskers) on the operated side. Functional recovery was assessed by evaluation of vibrissae movement for up to 14 days postoperatively using the following arbitrary scale of 0 to 4:0, complete paralysis with vibrissae flattened backwardly; —1, slight vibrating motion; —2, mild proximal vibrating motion; —3 moderate motion of vibrissae and lips; 4, full motion of lower face and vibrissae. Results were evaluated by analysis of variance (ANOVA) procedure followed by Bonferroni post hoc testing and differences considered significant at p<0.05.
B. sterile water containing agmatine and unoperated (controls, semisolid circle). C. Regular sterile drinking-water and nerve crush (solid square). D. sterile water containing agmatine and nerve crush (solid triangle). Results are the mean (±SEM, vertical lines) values of 7 animals. *=p<0.001 comparing group C to group D values.

humans = assay: Open label dose-escalating safety and tolerability study of dietary agmatine sulfate capsules (Example I); assay type: in vivo, human; conditions: oral doses of up to 2.67 g/day for over 2 years
[3] = Day 115 (20 days after treatment)

For `N=C(N)NCCCCN.O=S(=O)(O)O` [agmatine sulfate], the “Adverse effects during the trial” value ([1]; 31 participants) was “no adverse effects were noted”, the “Improvement in general health status, SF-36 Total Score, compared to placebo” value ([1]; follow-up 15-20 day, p=0.013) was “statistically significant enhanced improvements” and the “Improvement in pain measures (Visual Analogue Scale) compared to placebo” value ([1]; follow-up 15-20 day, p=0.033) was “statistically significant enhanced improvements”. The “General cage behavior, fur appearance and feces appearance” value (male Wistar rats; 95 days treatment) was “all normal”, the “Blood Pressure (% Change), percent of day 1” value (male Wistar rats; Day 1) was “(100) %” and the “Body Weight (% Change), percent of day 1” value (male Wistar rats; Day 1) was “(100) %”. The “Daily Drinking (% Change), percent of day 1” value (male Wistar rats; Day 1) was “(100) %”, the “Blood Pressure (% Change), percent of day 1” value (male Wistar rats; Day 21) was “(97.3) %” and the “Body Weight (% Change), percent of day 1” value (male Wistar rats; Day 21) was “(97.6) %”. For the same compound, the “Daily Drinking (% Change), percent of day 1” value (male Wistar rats; Day 21) was “(72.1) %”, the “Blood Pressure (% Change), percent of day 1” value (male Wistar rats; Day 95) was “(96.9) %” and the “Body Weight (% Change), percent of day 1” value (male Wistar rats; Day 95) was “(102.2) %”. The “Daily Drinking (% Change), percent of day 1” value (male Wistar rats; Day 95) was “(83.9) %”, the “Blood Pressure (% Change), percent of day 1” value (male Wistar rats; Day 115) was “(99.1) %” and the “Body Weight (% Change), percent of day 1” value (male Wistar rats; Day 115) was “(103.9) %”. For the same compound, the “Daily Drinking (% Change), percent of day 1” value (male Wistar rats; Day 115) was “(99.7) %”, the “Weight gain after switch to regular drinking water” value (male Wistar rats; after 95 days of treatment) was “recovery in weight gain within 20 days” and the Weight gain (male Wistar rats; during treatment) was “reduced weight gain with actual weight loss during the first 3 weeks of treatment”. For the same compound, the “Volume of water intake” value (male Wistar rats; during treatment, 5.3 g/l in drinking water) was “reduction in volume of water intake”, the Systolic blood pressure (male Wistar rats; during treatment, recovered 20 days after cessation) was “slight, but significant reduction” and the “Blood Pressure (mmHg), systolic, mean” value (male Wistar rats; Day 1) was 106.4 mmHg. For the same compound, the “Daily Drinking (ml), mean” value (male Wistar rats; Day 1) was 34.8 mL, the “Body Weight (g), mean” value (male Wistar rats; Day 1, n=10) was 253.4 g and the “Blood Pressure (mmHg), systolic, mean” value (male Wistar rats; Day 21, p<0.05 vs day 1) was 103.5 ± mmHg. For the same compound, the “Body Weight (g), mean” value (male Wistar rats; Day 21, p<0.05 vs day 1) was 247.3 ± g, the “Daily Drinking (ml), mean” value (male Wistar rats; Day 21, p<0.05 vs day 1) was 25.1 ± ml and the “Blood Pressure (mmHg), systolic, mean” value (male Wistar rats; Day 95, p<0.05 vs day 1) was 103.1 ± mmHg. The “Body Weight (g), mean” value (male Wistar rats; Day 95, p<0.05 vs day 1) was 258.9 ± g, the “Daily Drinking (ml), mean” value (male Wistar rats; Day 95, p<0.05 vs day 1) was 29.2 ± ml and the “Body Weight (g), mean” value (male Wistar rats; Day 115 (20 days after treatment), n=5, p<0.05 vs day 1) was 261.4 ± g. For the same compound, the “Blood Pressure (mmHg), systolic, mean” value (male Wistar rats; Day 115, n=5) was 105.8 mmHg, the “Daily Drinking (ml), mean” value (male Wistar rats; Day 115, n=5) was 34.9 mL and the “Body Weight” value (male Wistar rats; Day 1 (beginning), 5.3 g/l in drinking water) was 250 g (2×) and 265 g and 255 g and 257 g and 247 g and 245 g and 252 g and 260 g and 253 g. For the same compound, the “Blood Pressure (mmHg), systolic” value (male Wistar rats; Day 1, tail-cuff) was 99.0 mmHg and 100.0 mmHg and 105.0 mmHg (2×) and 112.0 mmHg and 115.0 mmHg and 110.0 mmHg and 109.0 mmHg and 102.0 mmHg and 107.0 mmHg, the “Daily Drinking” value (male Wistar rats; Day 1) was 35.5 ml and 34.8 ml and 35.6 ml (2×) and 34.7 ml and 33.4 ml and 35.0 ml (2×) and 33.8 ml and 34.5 ml and the “Blood Pressure (mmHg), systolic” value (male Wistar rats; Day 21) was 97.0 mmHg and 95.0 mmHg and 100.0 mmHg (2×) and 109.0 mmHg and 115.0 mmHg and 103.0 mmHg (2×) and 107.0 mmHg and 106.0 mmHg. For the same compound, the “Daily Drinking” value (male Wistar rats; Day 21) was 21.4 mL and 25.3 mL and 25.1 mL and 25.0 mL and 24.1 mL and 25.5 mL and 26.4 mL and 24.9 mL and 27.0 mL and 26.7 mL, the “Body Weight” value (male Wistar rats; Day 21 of treatment) was 255 g (2×) and 245 g (3×) and 260 g and 227 g and 242 g and 250 g and 249 g and the “Blood Pressure (mmHg), systolic” value (male Wistar rats; Day 95) was 95.0 mmHg and 97.0 mmHg and 101.0 mmHg (2×) and 110.0 mmHg and 112.0 mmHg and 105.0 mmHg (2×) and 106.0 mmHg and 99.0 mmHg. The “Daily Drinking” value (male Wistar rats; Day 95) was 25.6 ml and 28.7 ml and 30.0 ml (2×) and 27.7 ml and 29.6 ml and 30.3 ml and 28.4 ml and 31.3 ml and 30.6 ml, the “Body Weight” value (male Wistar rats; Day 95 of treatment) was 265 g and 257 g (2×) and 273 g and 253 g and 251 g and 255 g (2×) and 263 g and 260 g and the “Blood Pressure (mmHg), systolic” value (male Wistar rats; [3]) was 108.0 mmHg and 107.0 mmHg (2×) and 104.0 mmHg and 103.0 mmHg. For the same compound, the “Body Weight” value (male Wistar rats; [3]) was 256 g and 261 g and 259 g and 267 g and 264 g, the “Daily Drinking” value (male Wistar rats; [3]) was 34.5 mL and 35.3 mL and 34.9 mL and 35.0 mL and 34.8 mL and the Stomach ulcers (male Wistar rats; inspection after 95 days) was “no stomach ulcers were observed”. The “Average daily water consumption” value (male Wistar rats; over the 95 day treatment period) was 27.15 mL, the “Inspection of main internal organs” value (male Wistar rats; stomach, kidney, heart, liver) was “did not reveal any gross changes” and the “Day after injury at which nearly full recovery of vibrissae movement is achieved” value ([2]; controls: day 14) was 12 days. The “Increase in vibrissae motion as compared to controls (group C)” value ([2]; day 10 after injury, 5.3 g/l in drinking water for 21 days before crush) was 181.2%, the “Recovery of vibrissae movement” value ([2]; group D vs group C, p<0.001) was “significantly accelerated recovery of vibrissae movement” and the Adverse effects (humans) was “have not been associated with any adverse effects”.
